Assay [1] deals with platelets. Description: Camera images of platelet adherence in collagen-coated microchip 1 (Example 7). It counts as cell-based. The settings on record: ADP 0.025, 0.05, 0.1 μM in citric acid-treated blood, 8 μl/min, image after 1 minute. Here is the method:
(§1) In the first substrate 100, the length, depth and width of the channel (capillary) 101 were 20 mm, 50 μm and 2 mm, respectively.
A pump 109 was connected to the reservoir 107 via a tube, and the pressure exerted on the pump was measured with a pressure sensor which is not shown. In the reservoir 107, a cylindrical stirring bar 108 having a diameter of 2 mm and a length of 5 mm, which was prepared by coating an iron cylinder with PMEA, was contained. The stirring bar 108 was set such that it can be rotated at 60 to 180 rpm by the magnetic force of a stirrer 113 placed under the heater 115 which was heated to 37° C. An outlet duct 112 was connected to the outlet such that the blood after the analysis can be discharged. A camera 111 to which an image analyzer 114 was connected was placed above the channel dividing section 102 of the microchip 1, thereby allowing observation of the state of platelet activation in the channel dividing section 102.
An experiment was carried out using the microchip 1 and the system A in Example 1 for diagnosis by images. The pump 109 was filled with mineral oil, and the reservoir 107 was filled with blood anticoagulated with citric acid. The mineral oil was sent to the reservoir 107 using the pump 109 at a flow rate of 8 μl/min. to allow the blood to flow into the microchip 1. […]

The test system of assay [2] is platelets. Description: Pressure increase in glass-surface microchip 2, citric acid-anticoagulated blood with ADP (Examples 8 to 10). It counts as ex vivo. The text has this:
The first substrate 200 shown in FIG. 3A and the second substrate 210 shown in FIG. 3B were laminated with and bonded to each other, to provide the microchip 2 shown in FIG. 3C. In terms of the substrate 200, a substrate made of PDMS (Fluidware) was used, and the depth of all the channels was 120 μm; the channel width was 1 mm; the length of the comb was 1 mm; the width of the comb was 50 μm; and the groove width was 50 μm. In terms of the substrate 210, a slide glass was used, and penetrating holes corresponding to the inlet and the outlet were provided as in the substrate 110, but, unlike the substrate 110, collagen was not applied since the glass plays a role as a platelet-adhesive surface. […] The mineral oil was injected from the pump 209 into the microchip 2 at a flow rate of 20 μl/min., and the inflow pressure of the mineral oil was measured by a pressure sensor which is not shown. Pressure changes were measured by carrying out an experiment which was the same as that in Example 8 except that ADP (manufactured by Wako Pure Chemical Industries, Ltd.) was further added to the blood anticoagulated with citric acid in the reservoir 207 to a final concentration of […]. Pressure changes were measured by carrying out an experiment which was the same as that in Example 9 except that blood collected 3 hours after dosing with 75 mg clopidogrel (Sanofi-aventis) was used.

Assay [3] relates to platelets. Description: Pressure increase in collagen-coated microchip 1, citric acid-treated blood with arachidonic acid or collagen (Examples 16 to 18). The settings on record: subject G. Type of assay: ex vivo. How it is done: as §1
The experiments a to f in Example 16 were carried out for the subject G 6 hours after dosing with 100 mg of aspirin.
Using blood of the subject G collected 6 hours after dosing with 100 mg of aspirin, experiments were carried out in the same manner as in Examples 16d to f except that the collagen to be added was increased to 12 μl or 18 μl.

Assay [4] concerns platelets. The settings on record: subject D, blood collected 6 hours after oral 100 mg clopidogrel, 6 μl of 100 μM ADP in about 600 μl blood, 20 μl/min.
Protocol: Two transparent substrates, that is, the first substrate 100 shown in FIG. 1(A) and the second substrate 110 shown in FIG. 1(B) (injection-molded products manufactured by Richell Corporation) were prepared. The side of the first substrate 100 wherein a groove corresponding to a capillary 101 opens and the side of the second substrate 110 having a platelet-adhesive surface 106 were bonded together such that these face to each other using a silane coupling agent and thermocompression bonding, to provide the microchip 1 shown in FIG. 1(C). In the first substrate 100, the length, depth and width of the channel (capillary) 101 were 20 mm, 50 μm and 2 mm, respectively. In terms of the channel dividing section 102, dividing walls 103 each having a length of 1.5 mm, width of 50 μm and height of 50 μm were placed at equal intervals of 50 μm, and this part was used as the channel dividing section. In the second substrate, each of the holes corresponding to the inlet and the outlet was a penetrating hole having a circular cross section and an inner diameter of 2 mm and a depth of 2 mm. At the position on the second substrate 110 which is overlapped with the channel dividing section 102 of the first substrate 100, about 10 μl of 3 mg/ml collagen type I (manufactured by Nitta Gelatin Inc.) was applied and dried under vacuum to provide a platelet-adhesive surface 106. […]
The test system of assay [5] is platelets. Kind of assay: Pressure increase in collagen-coated microchip 1, hirudin-anticoagulated blood with agent added (Examples 19 to 22). Type of assay: cell-based. Conditions: flow rate 7 μl/min, ReoPro 0.4 or 0.8 μg/ml. Here is the method: as §1
(a) Blood was collected from the subject D using a hirudin blood collection tube (Multiplate Services GmbH), and about 600 μl of the blood anticoagulated with hirudin was filled in the reservoir 207. The pump 209 was filled with mineral oil and connected to the reservoir 207, whose tip was further connected to the inlet 104 in the microchip 1.

For `Nc1ncnc2c1ncn2[C@@H]1O[C@H](COP(=O)(O)OP(=O)(O)O)[C@@H](O)[C@H]1O` [ADP, adenosine diphosphate], the “amount of platelets adhered to the comb portion” value in the assay on platelets [1] was “increase in the amount of platelets adhered to the comb portion, which occurred in an ADP concentration-dependent manner”. Moreover, in the assay with platelets [2] (blood anticoagulated with citric acid, ADP final concentration 2 nM, flow rate 20 μl/min), the “pressure increase in the pump on addition of ADP” value was “caused pressure increase”.

In the case of `CC(=O)Oc1ccccc1C(=O)O` [aspirin], the “pressure increase of blood collected after aspirin with increased collagen” value in the assay with platelets [3] (6 hours after 100 mg aspirin, collagen increased to 12 μl or 18 μl, 20 μl/min (FIG. 19)) is “can also be made to cause pressure increase by increasing the collagen to be added”. Further, the “anti-platelet effect of aspirin by pressure increase” value in the assay with platelets [3] (6 hours after dosing with 100 mg aspirin, arachidonic acid or collagen added, 20, 10, 5 μl/min) is “anti-platelet effect of aspirin can be analyzed”. Turning to `COC(=O)[C@H](c1ccccc1Cl)N1CCc2sccc2C1` [clopidogrel], in the assay with platelets [4], the “pressure increase after administration of clopidogrel” value is on record as “pressure increase delayed”. In addition, in the assay on platelets [2] (blood collected 3 hours after dosing with 75 mg clopidogrel, ADP 2 nM, 20 μl/min), the “ADP-induced pressure increase after administration of clopidogrel” value is reported as “the increase was suppressed”.

B1: ReoPro: ReoPro (Eli lilly), an antibody against the receptor GPIIb/IIIa on the platelet membrane (antibody, chains of the INN, looked up, V domains shown)
VH: EVQLQQSGTVLARPGASVKMSCEASGYTFTNYWMHWVKQRPGQGLEWIGAIYPGNSDTSYIQKFKGKAKLTAVTSTTSVYMELSSLTNEDSAVYYCTLYDGYYVFAYWGQGTLVTVSA
VL: EIVLTQSPVTLSVTPGDSVSLSCRASRDISNNLHWFQQTSHESPRLLIKYASQSMSGIPSRFSGSGSGTDFTLSINSVETEDFGMYFCQQTNSWPYTFGGGTKLEIK
modifications: Fab
notes: ReoPro (Eli lilly), an antibody against the receptor GPIIb/IIIa on the platelet membrane
Take B1: the “anti-platelet effect under low shear stress” value with platelets [5] is recorded as “rather strong anti-platelet effect”.
